Results on twelve compounds are retold here after patent publication US11932599B2, “Ferroptosis inducing compound, compositions comprising the same, and methods of inducing ferroptosis” (UNIVERSITY OF MASSACHUSETTS, priority 2021, dated 2024).

For data set [1], the system named is HT-1080 cells. Kind of data set: Cell viability assay (Alamar Blue), cytotoxicity in HT-1080 cells. The data set is classed as cell-based, human. The method, then:
(§1) Cell lines and media. In the following example, HT-1080 (Human fibrosarcoma harboring NrasQ61K) cells (obtained from ATCC) were grown in DMEM high-glucose media with 1% non-essential amino acids (Life Technologies) and 10% FBS. 143B cells were grown in DMEM high-glucose media with 1% glutamine and 10% FBS. Calu-1 cells were grown in McCoy's 5A media (Life Technologies) supplemented with 10% FBS. All the cell lines were grown at 37° C. under 5% CO2. Cell lines were not tested for mycoplasma. In addition, the panel of four lung cancer (NCI-H23; SK-Mes-1; Calu6 and A549) were purchased from ATCC. They were cultured according to the ATCC protocol of each cell line. The non-malignant breast epithelial cells (MCF10A) were maintained in DMEM/F12 medium supplemented with 5% horse serum, epidermal growth factor (20 ng/ml), insulin (10 μg/ml), hydrocortisone ([…]), cholera toxin (100 ng/ml), and penicillin/streptomycin.
Cell viability assay. 9,000 cells per 100 μl were seeded in each well in 96-well plates. Lethal compounds were dissolved in DMSO. In the mother plates, DMSO stock of each compound was further diluted with media to create 20 μM or 10 μm as highest concentrations, respectively and a twofold, 9-point dilution series was prepared. Cells were seeded for 24 h and media were replaced by the mother plate drug-dilution media. When ferroptosis inhibitors (for example, 500 nM Ferrostatin-1, 100 μM α-tocopherol, 152 μM deferoxamine) were used in cotreatments with lethal inducers, they were supplemented to cell culture when the lethal compounds were added, and the cells were then incubated for 48 h. When other cell-death-modulating compounds (100 nM sodium selenite) were used in cotreatments, they were supplemented to cell culture for 24 h before lethal compounds were added to cell culture, after which cells were further incubated for 48 h at 37° C. under 5% CO2. On the day of the viability measurement, we added 25 μl per well of 50% Alamar Blue diluted in media (Life Technologies) and further incubated the cells at 37° C. for 6 h. Fluorescence intensity (excitation/emission: 540/590) was measured with a Victor 3 plate reader (PerkinElmer), and the normalized viability was calculated as VL=(IL−I0)/(IV−I0), where VL is the normalized viability, I0 is the raw fluorescence intensities from the wells containing media, IV is the cells treated with a vehicle (negative control), and IL is the cells with the lethal compound (L), respectively. The viability was typically measured in at least biological duplicate. A representative dose-response curve, the mean and standard error of normalized viability from one replicate were plotted.
Statistical analysis and data visualization. Dose-response curve plotting and EC50 computation were performed with Prism 6.0c (GraphPad Software).
Various compounds were selected for analysis of their cytotoxicity in HT-1080 cells according to the procedure described above.

Data set [2] concerns HT-1080 cells. Kind of data set: Cell viability assay in HT-1080 cells, cotreatment with cell-death inhibitors. It is filed as cell-based, human. The conditions noted are these: HT-1080, 48 h; for EC50: Homo sapiens, read-out: EC50 (μM) of FIN56 + inhbitor.
The test system of the next data set is NCI-H23 cells. Kind of data set: Cell viability assay, cytotoxicity in NCI-H23 cells. It is filed as cell-based. Conditions: NCI-H23 cells, 48 hours. As to the method:
as §1
Cell viability assay. 9,000 cells per 100 μl were seeded in each well in 96-well plates. Lethal compounds were dissolved in DMSO. In the mother plates, DMSO stock of each compound was further diluted with media to create 20 μM or 10 μm as highest concentrations, respectively and a twofold, 9-point dilution series was prepared. […] Fluorescence intensity (excitation/emission: 540/590) was measured with a Victor 3 plate reader (PerkinElmer), and the normalized viability was calculated as VL=(IL−I0)/(IV−I0), where VL is the normalized viability, I0 is the raw fluorescence intensities from the wells containing media, IV is the cells treated with a vehicle (negative control), and IL is the cells with the lethal compound (L), respectively. The viability was typically measured in at least biological duplicate. […]
In addition, the compound TKD1079 was also analyzed for cytotoxicity in four different lung cancer cell lines according to the procedure described above. […] Cytotoxicity was also determined against MCF10A non-malignant breast epithelial cell, NCI-H1299 human non-small cell lung carcinoma cell line, and Beas-2B epithelial cells isolated from normal human bronchial epithelium.

Setting [3] is: HT-1080 cells, compound alone, read-out: EC 50.
Where [4] appears, read: Homo sapiens, HT-1080, HT-1080 cells, compound alone, read-out: EC 50.

Consider `O=S(=O)(NC1CCCCC1)c1ccc2c(c1)C(=NO)c1cc(S(=O)(=O)NC3CCCCC3)ccc1-2` [FIN56, reference compound], for which the EC50 in the data set on HT-1080 cells [1] (setting [3]) is 0.326 µM; with HT-1080 cells [1] (Homo sapiens, HT-1080, 48 h, HT-1080 cells, 48 hour incubation, no inhibitor, read-out: EC50 (μM) of FIN56), 0.328 µM; in the data set on HT-1080 cells [1] (setting [4]), 0.328 µM; in the data set with HT-1080 cells [2] (cotreated with DFOM (152 μM)), more than 20 µM; in the data set on HT-1080 cells [2] (cotreated with Fer 1 (500 nM)), more than 30 µM; in the data set with HT-1080 cells [2] (cotreated with ZVAD (45 μM)), 0.196 µM. Moreover, the EC50 in the data set on HT-1080 cells [2] (cotreated with aToc (100 μM)) amounted to 11.5 µM. Moreover, the “Slectivity in fold [EC50 (FIN56 + inhibitor)/ EC50 inhbitor]” value was more than 60 fold in the data set with HT-1080 cells [2] (DFOM (152 μM)), more than 90 fold in the data set with HT-1080 cells [2] (Fer 1 (500 nM)), 0.6 fold with HT-1080 cells [2] (ZVAD 45 μM) and 34.8 fold in the data set with HT-1080 cells [2] (aToc (100 μM)). Moreover, the “blocking of the compound's lethality by the apoptosis inhibitor pathway (ZVAD)” value in the data set with HT-1080 cells [2] (ZVAD 45 μM) is “did not block”.

On to `N#CC1c2cc(S(=O)(=O)NC3CCCCC3)ccc2-c2ccc(S(=O)(=O)NC3CCCCC3)cc21` [MH1013, 9-cyano-N^2,N^7-dicyclohexyl-9H-fluorene-2,7-disulfonamide], for which, in the data set with HT-1080 cells [1] (setting [4]), the EC50 amounted to 13.4 µM.

Take `C#CCON=C1c2cc(S(=O)(=O)NC3CCCCC3)ccc2-c2ccc(S(=O)(=O)NC3CCCCC3)cc21` [TKD1020, N^2,N^7-dicyclohexyl-9-((prop-2-yn-1-yloxy)imino)-9H-fluorene-2,7-disulfonamide]: the EC50 in the data set with HT-1080 cells [1] (setting [4]) was determined as 10.8 µM.

Regarding `O=S(=O)(NC12CC(C1)C2)c1ccc2c(c1)C(=NO)c1cc(S(=O)(=O)NC34CC(C3)C4)ccc1-2` [TKD1026, N^2,N^7-di(bicyclo[1.1.1]pentan-1-yl)-9-(hydroxyimino)-9H-fluorene-2,7-disulfonamide], the EC50 was 1.7 µM in the data set on HT-1080 cells [1] (setting [3]) and less than 2 µM with HT-1080 cells [1] (setting [4]).

`O=S(=O)(NCCF)c1ccc2c(c1)C(=NO)c1cc(S(=O)(=O)NCCF)ccc1-2` [TKD1027, N^2,N^7-bis(2-fluoroethyl)-9-(hydroxyimino)-9H-fluorene-2,7-disulfonamide]: the EC50 with HT-1080 cells [1] (setting [4]) was more than 20 µM.

For `CNS(=O)(=O)c1ccc2c(c1)C(=NO)c1cc(S(=O)(=O)NC)ccc1-2` [TKD1034A, 9-(hydroxyimino)-N^2,N^7-dimethyl-9H-fluorene-2,7-disulfonamide], in the data set on HT-1080 cells [1] (setting [4]), the EC50 was 12.1 µM.

Take `CCC(CC)NS(=O)(=O)c1ccc2c(c1)C(=NO)c1cc(S(=O)(=O)NC(CC)CC)ccc1-2` [TKD1034D, 9-(hydroxyimino)-N^2,N^7-di(pentan-3-yl)-9H-fluorene-2,7-disulfonamide]: the EC50 in the data set with HT-1080 cells [1] (setting [4]) came out at 0.51 µM.

On to `CCCNS(=O)(=O)c1ccc2c(c1)C(=NO)c1cc(S(=O)(=O)NCCC)ccc1-2` [TKD1034E, 9-(hydroxyimino)-N^2,N^7-dipropyl-9H-fluorene-2,7-disulfonamide], for which the EC50 in the data set on HT-1080 cells [1] (setting [4]) was 5.67 µM.

With `C#CC1(O)c2cc(S(=O)(=O)NC3CCCCC3)ccc2-c2ccc(S(=O)(=O)NC3CCCCC3)cc21` [TKD1066, N^2,N^7-dicyclohexyl-9-ethynyl-9-hydroxy-9H-fluorene-2,7-disulfonamide], the EC50 with HT-1080 cells [1] (setting [4]) turned out to be 4.59 µM.

As to `O=S(=O)(NC1CCCCC1)c1ccc2c(c1)C(Br)c1cc(S(=O)(=O)NC3CCCCC3)ccc1-2` [TKD1100, 9-bromo-N2,N^7-dicyclohexyl-9H-fluorene-2,7-disulfonamide], the EC50 in the data set with HT-1080 cells [1] (setting [4]) came to 3.56 µM.

For `O=S(=O)(NC1C2CC3CC(C2)CC1C3)c1ccc2c(c1)C(=NO)c1cc(S(=O)(=O)NC3C4CC5CC(C4)CC3C5)ccc1-2` (stereo not drawn) [TKD2043, N^2,N^7-di(adamantan-2-yl)-9-(hydroxyimino)-9H-fluorene-2,7-disulfonamide], the “cytotoxicity (cell viability) in NCI-H23 cells” value in the data set with NCI-H23 cells was “significantly more potent than TKD1079 and FIN56”.

As to `CC(C)CNS(=O)(=O)c1ccc2c(c1)C(=NO)c1cc(S(=O)(=O)NCC(C)C)ccc1-2` [TKD10416, 9-(hydroxyimino)-N^2,N^7-diisobutyl-9H-fluorene-2,7-disulfonamide], the EC50 in the data set on HT-1080 cells [1] (setting [4]) was determined as 4.35 µM.
